The text below walks through data of patent US4539429A, “Substituted aminophenylalkyl ketones, their preparation and use” (Sterling Drug Inc., priority 1983, dated 1985).

Like-named read-outs stand apart in the source and are kept apart here.

The target in one assay is T1, lipoxygenase (Rattus norvegicus, UniProt P12527).
T1 construct: Single cell suspensions of RBL-1 cells are homogenized to obtain the microsomal fraction containing lipoxygenase and cyclooxygenase; endogenous in cells; host or cells: RBL-1 (rat basophilic leukemia) cells
T1 sequence (P12527 1-673): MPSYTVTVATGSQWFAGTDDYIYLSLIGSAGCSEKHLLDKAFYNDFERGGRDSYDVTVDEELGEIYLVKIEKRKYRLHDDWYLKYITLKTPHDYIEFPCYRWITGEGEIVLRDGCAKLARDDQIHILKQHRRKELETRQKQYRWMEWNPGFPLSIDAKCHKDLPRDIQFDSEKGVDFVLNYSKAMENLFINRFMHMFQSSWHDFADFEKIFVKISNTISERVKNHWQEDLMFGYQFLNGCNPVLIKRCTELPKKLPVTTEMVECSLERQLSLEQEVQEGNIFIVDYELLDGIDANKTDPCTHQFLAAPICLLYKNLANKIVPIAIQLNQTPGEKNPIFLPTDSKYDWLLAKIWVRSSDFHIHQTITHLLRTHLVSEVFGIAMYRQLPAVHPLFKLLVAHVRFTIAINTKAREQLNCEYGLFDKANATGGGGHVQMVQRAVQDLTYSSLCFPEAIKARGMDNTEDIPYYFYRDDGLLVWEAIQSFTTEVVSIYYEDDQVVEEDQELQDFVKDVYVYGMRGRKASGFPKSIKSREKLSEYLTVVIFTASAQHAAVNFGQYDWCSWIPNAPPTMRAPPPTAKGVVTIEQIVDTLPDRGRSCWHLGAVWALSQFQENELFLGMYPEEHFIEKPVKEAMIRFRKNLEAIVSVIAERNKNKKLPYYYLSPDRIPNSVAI
As to the kind of experiment: Inhibition of lipoxygenase from rat basophilic leukemia (RBL-1) cells (formation of L1 5,12-di-HETE and L2 5-HETE). In kind it is biochemical. How it is done: (§1) The primary screening test used is a determination of the inhibition of lipoxygenase and cyclooxygenase derived from rat basophilic leukemia (RBL-1) cells. The test was carried out according to the following procedure:
(§2) Single cell suspensions of RBL-1 cells are homogenized to obtain the microsomal fraction containing lipoxygenase and cyclooxygenase. Test compounds are added to the enzyme-containing homogenate for a 5 min preincubation period at 37° C. prior to the additon of ^14 C-arachidonic acid substrate. Following incubation at 37° C. for 15 min, the reaction is stopped by the addition of 2M formic acid and the enzyme-substrate products are extracted into chloroform. An aliquot of the extract is evaporated to dryness, reconstituted in ether to 1/10 original volume, spotted on thin layer chromatography plates and chromatographed. The peak areas of radioactivity representing the products are located by scanning the plates. The quantity of products formed is estimated by measuring the height of the radioactivity peaks observed on the chromatographic scans. Alternatively, the areas of radioactivity are scraped from the plate and the ^14 C quantitated by scintillation counting.

In a further assay the target is T2, cyclooxygenase (Rattus norvegicus, UniProt Q63921).
T2 construct: Single cell suspensions of RBL-1 cells are homogenized to obtain the microsomal fraction containing lipoxygenase and cyclooxygenase; endogenous in cells; host or cells: RBL-1 (rat basophilic leukemia) cells
T2 sequence (Q63921 27-602): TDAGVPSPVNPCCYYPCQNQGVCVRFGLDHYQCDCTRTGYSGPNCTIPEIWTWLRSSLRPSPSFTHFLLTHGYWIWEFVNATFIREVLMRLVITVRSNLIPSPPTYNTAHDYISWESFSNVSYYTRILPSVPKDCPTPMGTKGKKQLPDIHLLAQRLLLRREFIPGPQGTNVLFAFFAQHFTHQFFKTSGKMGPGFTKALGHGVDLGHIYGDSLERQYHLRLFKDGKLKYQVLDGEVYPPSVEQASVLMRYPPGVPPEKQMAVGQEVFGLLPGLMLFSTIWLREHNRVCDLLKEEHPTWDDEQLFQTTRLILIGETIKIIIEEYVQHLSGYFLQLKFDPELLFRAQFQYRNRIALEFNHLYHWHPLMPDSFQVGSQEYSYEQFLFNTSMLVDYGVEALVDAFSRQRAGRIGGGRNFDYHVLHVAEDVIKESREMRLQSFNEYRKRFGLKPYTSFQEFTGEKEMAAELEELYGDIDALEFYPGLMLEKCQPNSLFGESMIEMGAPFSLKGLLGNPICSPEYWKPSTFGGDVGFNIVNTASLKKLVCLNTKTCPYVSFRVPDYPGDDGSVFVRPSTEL
As to the kind of experiment: Inhibition of cyclooxygenase from rat basophilic leukemia (RBL-1) cells (formation of PGD2, C1). Conditions: cyclooxygenase product PGD2 (C1); for inhibition at 1 µM: read-out: % Inhibition of cyclooxygenase (Cl) formation. The assay is classed as biochemical. How it is done:
as §1, §2

Assay [1] deals with SRS-A component of immunologically induced bronchoconstriction. As to the kind of experiment: Effect on the SRS-A component of immunologically induced bronchoconstriction in guinea pigs. In kind it is in vivo, guinea pig. How it is done: The test was carried out according to the following procedure:
Two weeks after immunization with egg albumin, guinea pigs are prepared for bronchoconstriction determination. One hour prior to antigen challenge, each animal is dosed orally with indomethacin and chlorpheniramine. Animals are anesthetized with sodium pentobarbital, the trachea cannulated and the animal artifically respired. Arachidonic acid is administered intravenously prior to antigen challenge. The resulting bronchoconstriction is recorded by the standard lung overflow procedure and the peak increase in intratracheal pressure (mm Hg) over a 10 minute observation period is recorded. Compounds are evaluated for their ability to prevent the increased intratracheal pressure in an experimental group of animals as compared to the medicated (indomethacin+chlorpheniramine+arachidonic acid) control group. The results are expressed in terms of percent inhibition or as ED50 values (effective dose in 50% of the animals).

As for `COc1ccc(Nc2ccc(O)cc2)c(C(C)=O)c1` [Example 1c, 1-[2-(4-Hydroxyphenylamino)-5-methoxyphenyl]ethanone], the IC50 (as a rule, the point on the concentration scale where inhibition reaches its midpoint) on lipoxygenase was 70 nM; at cyclooxygenase, above 1000 nM. The inhibition (as a rule, the percentage by which the read-out fell short of the control) at 1 µM on lipoxygenase (read-out: % Inhibition of lipoxygenase (L1) formation) was 88%; on lipoxygenase (read-out: % Inhibition of lipoxygenase (L2) formation) it was 88%; on cyclooxygenase, 36%. For the same compound, the 50% effective dose (ED50) – broadly, the dose at which the effect has come halfway, by size or by number of responders – in assay [1] (Cavia porcellus, iv, indomethacin + chlorpheniramine pretreated, arachidonic acid i.v. before antigen challenge, read-out: In vivo Guinea Pig ED50) worked out at 2.7 mg/kg. The “In vivo Guinea Pig % inhib.” value in assay [1] (at 1 mg/kg orally, increased intratracheal pressure vs medicated control group) stood at 52%.
For `CC(=O)c1ccccc1Nc1ccc(O)cc1` [Example 2c, 1-[2-(4-Hydroxyphenylamino)phenyl]ethanone], the inhibition at 1 µM was found to be 61% on lipoxygenase (1 μM, L1 = 5,12-di-HETE, read-out: % Inhibition of lipoxygenase (L1) formation); 72% at lipoxygenase (1 μM, L2 = 5-HETE, read-out: % Inhibition of lipoxygenase (L2) formation); 9% on cyclooxygenase.
